Source: EP0369874A2, “Cardioprotective tocopherol analogs” (MERRELL DOW PHARMACEUTICALS INC., priority 1988, dated 1990)
“And” between values parts separate entries of the source, which are not always exact repeats. Equal entries are not always repeated.

Experiments:
[1] = system: ligation-induced infarcted and reperfused rats; assay: Cardioprotective effects: coronary ligation 60 min, reperfusion 30 min, infarcted area / area at risk; type: in vivo
Procedure: 2-(3,4-Dihydro-2,5,7,8-tetramethyl-6-methylcarbonyloxy-2H-1-benzopyran-2-yl)ethyl-N,N,N-trimethylammonium bromide was evaluated in ligation-induced infarcted and reperfused rats as follows. One of two groups of rats was infused intravenously with a solution of test compound in saline at a rate of 2.3 ml/h (10 mg/kg/h). The control group was infused with saline at the same rate. After 10 min of drug infusion, coronary arteries were ligated surgically for 60 min, ligation was loosened to allow reperfusion for 30 min. The ligation was […] dye (Evans Blue) was injected. The animals were sacrificed and the heart ventricles were removed and weighed. The unstained tissue was dissected and weighed; this represents the "area at risk". i.e. the area that was deprived of blood supply by ligation. To determine the infarcted area, the tissue was incubated with 2,3,5-triphenyltetrazolium chloride. Infarcted tissue became light colored and could be dissected and weighed. Thus, for each rat that survived the ligation a measurement of "area at risk" and of "infarcted area" was obtained and the ratio was calculated as given in Tables II and III. TABLE II 3,4-Dihydro-2-(2-dimethylaminoethyl)-2,5,7,8-tetramethyl-2H-1-benzopyran-6-yl acetate hydrochloride was evaluated in ligation-induced infarcted and reperfused rats as follows. One of two groups of rats was infused intravenously with a solution of test compound in saline at a rate of 2.3 ml/h (10 mg/kg/h). The control group was infused with saline at the same rate. After 10 min of drug, coronary arteries were ligated surgically for 60 min, ligation was loosened to allow reperfusion for 30 min. The ligation was […] dye (Evans Blue) was injected. The animals were […] heart […] removed and weighed. The unstained tissue was dissected and weighed; this represents the "area at risk", i.e. the area that was deprived of blood supply by ligation. To determine the infarcted area, the tissue was incubated with 2,3,5-triphenyltetrazolium chloride. Infarcted tissue became light colored and was dissected and weighed. Thus, for each rat that survived the ligation a measurement of "area at risk" and of "infarcted area" was obtained and the ratio was calculated as shown in the following tables.

[2] = Free-radical scavenging: inhibition of autoxidation of 1-epinephrine (Misra and Fridovich); type: biochemical; settings: 1-epinephrine 1 x 10⁻⁴M, EDTA 1 x 10⁻⁴M, 30°C, absorbance at 480; read-out: 50% inhibition of the autoxidation rate (ID₅₀)
Procedure: 2-(3,4-dihydro-6-hydroxy-2,5,7,8-tetramethyl-2H-1-benzopyran-2-yl)ethyl-N,N,N-trimethylammonium bromide, described in Example 1, was evaluated for its ability to reduce superoxide radicals in an assay described by H.P. Misra and J. Fridovich, 1972, J. Biol. Chem. 247, 3170-5. In this assay, the rate of autoxidation of 1-epinephrine (1 x 10⁻⁴M) in the presence of EDTA (1 x 10⁻⁴M) at 30°C is followed spectrophotometrically following the increase of absorbance at 480 mn. […] For comparison, 3,4-dihydro-6-hydroxy-2,5,7,8-tetramethyl-2H-1-benzopyran-2-carboxylic acid (CAS 53188-07-1) gave ID₅₀= 105 ± 8 µM and d,1-penicillamine (CAS 52-67-5)ID₅₀ = 73 µM in parallel experiments. Misra and Fridovich report that bovine superoxide dismutase gave 50% inhibition at […].

[3] = Affinity for cardiac tissue: radioactivity in heart and blood after intravenous 14C-labelled compound; type: in vivo; settings: rats, 0.91 mg base/kg intravenous
Procedure: Following the procedure described in Example11, but using ¹⁴C-methyl p-toluenesulfonate in place of "cold material", ¹⁴C-labelled 2-(3,4-dihydro-2,5,7,8-tetramethyl-6-methylcarbonyloxy-2H-1benzopyranan-2-yl)ethyl-N,N,N-tri-¹⁴C-methylammonium p-toluenesulfonate was synthesized. The preparation was diluted with "cold material" to 11.74 µCi/mg base.
24 rats were given 0.91 mg base/kg by inravenous route (by canula into the jugular vein). The animals were sacrificed in groups of 3 at the time periods indicated in Table I. Immediately before sacrifice a 0.5 ml blood sample was taken from an indwelling catheter in the carotid artery. The hearts were removed, blotted and weighed. The samples of tissue and blood were solubilized with Luma Solve (a quarternary ammonium hydroxide preparation) and radioactivity was determined in a scintillation counter.

[4] = treated group, intravenous infusion 10 mg/kg/h, individual rats, listed as 3,4-Dihydro-2-(2-dimethylaminoethyl)-2,5,7,8-tetramethyl-2H-1-benzopyran-6-yl ac, acetate hydrochloride

In the case of `CC(=O)Oc1c(C)c(C)c2c(c1C)CCC(C)(CC[N+](C)(C)C)O2.[Br-]` (stereo not shown) [Example 11, 2-(3,4-Dihydro-2,5,7,8-tetramethyl-6-methylcarbonyloxy-2H-1-benzopyran-2-yl)ethyl-N,N,N-trimethylammonium bromide], the Infarcted tissue ([1]; treated group, intravenous infusion 10 mg/kg/h, individual rats) is reported as 23 mg and 27 mg and 39 mg and 33 mg.

Compound `Cc1c(C)c2c(c(C)c1O)CCC(C)(CC[N+](C)(C)C)O2` (stereo not shown) [Example 10, 2-(3,4-Dihydro-6-hydroxy-2,5,7,8-tetramethyl-2H-1-benzo-pyran-2-yl)ethyl-N,N,N-trimethylammonium bromide] has an IC50 [2] of 138 ± 14 µM.

d,1-penicillamine showed an IC50 [2] of 73 µM.

Work on `Cc1c(C)c2c(c(C)c1O)CCC(C)(C(=O)O)O2` (stereo not shown) [3,4-dihydro-6-hydroxy-2,5,7,8-tetramethyl-2H-1-benzopyran-2-carboxylic acid] yielded an IC50 [2] of 105 ± 8 µM.

In the case of `CC(=O)Oc1c(C)c(C)c2c(c1C)CCC(C)(CCN(C)C)O2.Cl` (stereo not shown) [Example 4, 3,4-Dihydro-2-(2-dimethylaminoethyl)-2,5,7,8-tetramethyl-2H-benzopyran-6-yl acetate hydrochloride], the reduction of infarction ([1]; treated group (10 mg/kg/h) versus saline control group) is reported as 48.2%, the “Ratio % (infarcted tissue / tissue at risk), average” value ([1]; treated group, intravenous infusion 10 mg/kg/h, group average) is reported as 38.0% and the Infarcted tissue [1, 4] is reported as 337 mg and 80 mg and 51 mg (2×) and 346 mg and 18 mg and 294 mg and 34 mg. For the same compound, the “Ratio % (infarcted tissue / tissue at risk)” value [1, 4] was 70.1% and 40.3% and 10% and 83.2% and 4% and 71.6% and 17.5% and 7.0%.

For `CC(=O)Oc1c(C)c(C)c2c(c1C)CCC(C)(CC[N+](C)(C)C)O2.Cc1ccc(S(=O)(=O)[O-])cc1` (stereo not shown) [Example 18, 2-(3,4-Dihydro-2,5,7,8-tetramethyl-6-methylcarbonyloxy-2H-1-benzopyran-2-yl)ethyl-N,N,N-trimethylammonium p-toluenesulfonate], the Ratio heart/blood ([3]; 5 min after administration) was 3.05±1.46, the ng equiv/ml blood ([3]; 5 min after administration) was 0.434±0.351 ng equiv/ml and the Ratio heart/blood ([3]; 15 min after administration) was 6.90±8.34. It also gave a ng equiv/ml blood ([3]; 15 min after administration) of 0.590±0.295 ng equiv/ml, a Ratio heart/blood ([3]; 30 min after administration) of 17.33±5.42 and a ng equiv/ml blood ([3]; 30 min after administration) of 0.124±0.032 ng equiv/ml. It also gave a Ratio heart/blood ([3]; 1 hour after administration) of 20.09±2.54, a ng equiv/ml blood ([3]; 1 hour after administration) of 0.096±0.008 ng equiv/ml and a Ratio heart/blood ([3]; 2 hours after administration) of 21.90±3.56. The ng equiv/ml blood ([3]; 2 hours after administration) was 0.086±0.041 ng equiv/ml, the ng equiv/ml blood ([3]; 4 hours after administration) was 0.054±0.013 ng equiv/ml and the Ratio heart/blood ([3]; 4 hours after administration, listed as 2-(3,4-dihydro-2,5,7,8-tetramethyl-6-methylcarbonyloxy-2H-1benzopyranan-2-yl)eth, p-toluenesulfonate) was 27.15 and 27.15±4.30. The Ratio heart/blood ([3]; 6 hours after administration) was 18.62±2.77, the ng equiv/ml blood ([3]; 6 hours after administration) was 0.048±0.007 ng equiv/ml and the Ratio heart/blood ([3]; 8 hours after administration) was 15.12±2.69. For the same compound, the ng equiv/ml blood ([3]; 8 hours after administration) was 0.048±0.012 ng equiv/ml and the “concentration of drug in heart tissue” value ([3]; after 8 h) was 0.65 µg equiv/g.
